According to patent publication US10506810B2, “Synergistic herbicidal composition” (QINGDAO KINGAGROOT RESISTANT WEED MANAGEMENT CO., LTD., priority 2015, dated 2019):

Assays:
[1] = tested on: Myosoton aquaticum; experiment: pot-culture method, stem and leaf treatment in greenhouse, fresh weight inhibition rate 20 days after treatment (Gowing method); format: in vivo
Description: (§1) Capsella bursa-pastoris, Myosoton aquaticum, Alopecurus japonicus were collected from corn fields in Huangdao Experimental Base of Shandong Province.
(§2) The above weeds were cultivated by a pot culture method. […] Full and uniform weed seeds were selected, soaked in warm water at 25° C. for 6 hours, and germinated in a 28° C. biochemical incubator (darkness). […] A certain amount of water was added to the enamel pan regularly to keep the soil moist.
(§3) The technical materials were all dissolved in acetone, and diluted with an aqueous solution containing 0.1% emulsifier T-80. The dilution is performed as required.
(§4) A ratio of the active ingredient A to the active ingredient B and amounts thereof in each group depends on the characteristics and toxicity of the two agents, as well as the main application purpose of a corresponding formulation. Based on the pre-tests in this study, the dosage of the active ingredient A and the active ingredient B applied alone and in combination were shown in the tables, and a total 15 groups were designed. Water containing the solvent and emulsifier same with the above groups but free of the agents was used as a blank control.
(§5) 3 pots with 20 weed seeds per pot were treated in one treatment with […] per treatment, that is, a total of 60 weeds were treated in one treatment.
(§6) The agents were used for only once in the experiment. In the stage of weeds with 2 leaves and 1 core, the weeds were thinned out to maintain 15 weeds per pot and 45 weeds for each treatment, then continued to be cultured to 3-5-leaves stage of Capsella bursa-pastoris and Myosoton aquaticum, and 3-leaves and 1-core stage of Alopecurus japonicus, and treated.
(§7) The well-cultured weeds were evenly placed on a platform with an area of 0.5 m^2, and a solution of agents was sprayed on the stems and leaves thereof by the 3WP-2000-type walking spray tower at a dosage of 30 kg/ha and at a spray pressure of 0.3 MPa. After all the solution was sprayed, the valve was closed. After 30 seconds, the door of the spray tower was opened, and the nutritional bowl was taken out. Then the valve was opened, and the spray tube was cleaned by spraying 50 ml of water.
(§8) A pot-culture method was employed. For the cultivation of weeds, please refer to the Section 1.2, and “Pesticide guidelines for laboratory bioactivity tests—herbicides”. As to a method for applying agents, please refer to the section 2.3.2, that is, a method for treating stems and leaves was employed.
(§9) A method for investigating absolute number was employed, wherein whole seedlings of survival weeds were cut off with a blade along the soil surface, and the fresh weight of the weeds was weighed with an analytical balance. For dead weeds, the fresh weight thereof was zero.
(§10) The investigation was performed after 20 days of the treatment for only once.
(§11) Wherein, in the formula, X represented the fresh weight inhibition rate of the active ingredient A in a dosage of P, and Y represented the fresh weight inhibition rate of the active ingredient B in a dosage of Q.

[2] = tested on: Capsella bursa-pastoris; experiment: as above; format: in vivo
Description: as §1, §2, §3, §4, §5, §6, §7, §8, §9, §10, §11

SMILES: CC(C)CCCCCOC(=O)COc1ccc(Cl)cc1Cl [2,4-D isooctyl ester, reference compound]
- actual fresh weight inhibition rate (%) ([1]; dosage 200 g/hm^2): 15.4%
- actual fresh weight inhibition rate (%) ([1]; dosage 350 g/hm^2): 26.3%
- actual fresh weight inhibition rate (%) ([1]; dosage 500 g/hm^2): 47.9%
- actual fresh weight inhibition rate (%) ([2]; dosage 200 g/hm^2): 21.1%
- actual fresh weight inhibition rate (%) ([2]; dosage 350 g/hm^2): 34.2%
- actual fresh weight inhibition rate (%) ([2]; dosage 500 g/hm^2): 55.9%

SMILES: CCCCOC(=O)COc1ccc(Cl)cc1Cl [2,4-butyl ester, 2,4-D butyl ester, reference compound]
- actual fresh weight inhibition rate (%) ([1]; dosage 200 g/hm^2): 18.4%
- actual fresh weight inhibition rate (%) ([1]; dosage 350 g/hm^2): 29.8%
- actual fresh weight inhibition rate (%) ([1]; dosage 500 g/hm^2): 49.3%
- actual fresh weight inhibition rate (%) ([2]; dosage 200 g/hm^2): 23.4%
- actual fresh weight inhibition rate (%) ([2]; dosage 350 g/hm^2): 42.9%
- actual fresh weight inhibition rate (%) ([2]; dosage 500 g/hm^2): 55.6%

SMILES: N#Cc1cc(Br)c(O)c(Br)c1 [Bromoxynil]
- pest or weed control at 240 g/ha ([1]; Myosoton aquaticum, 480 h, dosage 240 g/hm^2, read-out: actual fresh weight inhibition rate): 30.5%
- pest or weed control at 360 g/ha ([1]; Myosoton aquaticum, 480 h, dosage 360 g/hm^2, read-out: actual fresh weight inhibition rate): 38.7%
- pest or weed control at 480 g/ha ([1]; Myosoton aquaticum, 480 h, dosage 480 g/hm^2, read-out: actual fresh weight inhibition rate): 47.9%
- pest or weed control at 240 g/ha ([2]; Capsella bursa-pastoris, 480 h, dosage 240 g/hm^2, read-out: actual fresh weight inhibition rate): 40.6%
- pest or weed control at 360 g/ha ([2]; Capsella bursa-pastoris, 480 h, dosage 360 g/hm^2, read-out: actual fresh weight inhibition rate): 58.5%
- pest or weed control at 480 g/ha ([2]; Capsella bursa-pastoris, 480 h, dosage 480 g/hm^2, read-out: actual fresh weight inhibition rate): 81.3%

SMILES: Cc1cc(Cl)ccc1OCC(=O)O [MCPA, 2-methyl-4-chlorophenoxy acetic acid, reference compound]
- actual fresh weight inhibition rate (%) ([1]; dosage 300 g/hm^2): 23.8%
- actual fresh weight inhibition rate (%) ([1]; dosage 600 g/hm^2): 35.6%
- actual fresh weight inhibition rate (%) ([1]; dosage 900 g/hm^2): 45.8%
- actual fresh weight inhibition rate (%) ([2]; dosage 300 g/hm^2): 33.2%
- actual fresh weight inhibition rate (%) ([2]; dosage 600 g/hm^2): 41.7%
- actual fresh weight inhibition rate (%) ([2]; dosage 900 g/hm^2): 60.5%

SMILES: Cc1cc(Cl)ccc1OCC(=O)[O-].[Na+] [MCPA-Na, reference compound]
- actual fresh weight inhibition rate (%) ([1]; dosage 400 g/hm^2): 24.8%
- actual fresh weight inhibition rate (%) ([1]; dosage 800 g/hm^2): 36.9%
- actual fresh weight inhibition rate (%) ([1]; dosage 1200 g/hm^2): 50.9%
- actual fresh weight inhibition rate (%) ([2]; dosage 400 g/hm^2): 22.1%
- actual fresh weight inhibition rate (%) ([2]; dosage 800 g/hm^2): 38.3%
- actual fresh weight inhibition rate (%) ([2]; dosage 1200 g/hm^2): 56.7%

SMILES: Cc1cc(Cl)ccc1OCC(=O)OCCCCCC(C)C [MCPA-isooctyl, reference compound]
- actual fresh weight inhibition rate (%) ([1]; dosage 600 g/hm^2): 23.8%
- actual fresh weight inhibition rate (%) ([1]; dosage 1200 g/hm^2): 35.6%
- actual fresh weight inhibition rate (%) ([1]; dosage 1800 g/hm^2): 45.8%
- actual fresh weight inhibition rate (%) ([2]; dosage 600 g/hm^2): 33.2%
- actual fresh weight inhibition rate (%) ([2]; dosage 1200 g/hm^2): 41.7%
- actual fresh weight inhibition rate (%) ([2]; dosage 1800 g/hm^2): 60.5%

SMILES: CC(C)N1C(=O)c2ccccc2NS1(=O)=O [bentazon]
- pest or weed control at 500 g/ha ([1]; Myosoton aquaticum, 480 h, Myosoton aquaticum, 500 g/hm^2, read-out: actual fresh weight inhibition rate): 33.4%
- pest or weed control at 750 g/ha ([1]; Myosoton aquaticum, 480 h, Myosoton aquaticum, 750 g/hm^2, read-out: actual fresh weight inhibition rate): 46.2%
- pest or weed control at 1000 g/ha ([1]; Myosoton aquaticum, 480 h, Myosoton aquaticum, 1000 g/hm^2, read-out: actual fresh weight inhibition rate): 58.7%
- pest or weed control at 500 g/ha ([2]; 480 h, Capsella bursa-pastoris, 500 g/hm^2, read-out: actual fresh weight inhibition rate): 38.5%
- pest or weed control at 750 g/ha ([2]; 480 h, Capsella bursa-pastoris, 750 g/hm^2, read-out: actual fresh weight inhibition rate): 58.2%
- pest or weed control at 1000 g/ha ([2]; 480 h, Capsella bursa-pastoris, 1000 g/hm^2, read-out: actual fresh weight inhibition rate): 73.1%

SMILES: CCCCCCCC(=O)Oc1c(Br)cc(C#N)cc1Br [bromoxynil octanoate]
- pest or weed control at 190 g/ha ([1]; Myosoton aquaticum, 480 h, dosage 190 g/hm^2, read-out: actual fresh weight inhibition rate): 25.8%
- pest or weed control at 375 g/ha ([1]; Myosoton aquaticum, 480 h, dosage 375 g/hm^2, read-out: actual fresh weight inhibition rate): 38.5%
- pest or weed control at 560 g/ha ([1]; Myosoton aquaticum, 480 h, dosage 560 g/hm^2, read-out: actual fresh weight inhibition rate): 57.3%
- pest or weed control at 190 g/ha ([2]; Capsella bursa-pastoris, 480 h, dosage 190 g/hm^2, read-out: actual fresh weight inhibition rate): 42.7%
- pest or weed control at 375 g/ha ([2]; Capsella bursa-pastoris, 480 h, dosage 375 g/hm^2, read-out: actual fresh weight inhibition rate): 55.7%
- pest or weed control at 560 g/ha ([2]; Capsella bursa-pastoris, 480 h, dosage 560 g/hm^2, read-out: actual fresh weight inhibition rate): 78.6%

SMILES: Cc1nn(-c2cc(CC(Cl)C(=O)O)c(Cl)cc2F)c(=O)n1C(F)F (stereo not drawn) [carfentrazone, reference compound]
- actual fresh weight inhibition rate (%) ([1]; dosage 12 g/hm^2): 32.1%
- actual fresh weight inhibition rate (%) ([1]; dosage 24 g/hm^2): 45.8%
- actual fresh weight inhibition rate (%) ([1]; dosage 36 g/hm^2): 60.1%
- actual fresh weight inhibition rate (%) ([2]; dosage 12 g/hm^2): 55.2%
- actual fresh weight inhibition rate (%) ([2]; dosage 24 g/hm^2): 71.3%
- actual fresh weight inhibition rate (%) ([2]; dosage 36 g/hm^2): 80.5%
